The nature of assay [1]: Inhibition of Vibrio cholerae carbonic anhydrase beta preincubated for 15 mins by stopped-flow CO2 hydrase assay.
Assay [2] is described as follows: Inhibition of Helicobacter pylori alpha carbonic anhydrase preincubated for 15 mins by stopped-flow CO2 hydrase assay.
The nature of assay [3]: Inhibition of Vibrio cholerae alpha carbonic anhydrase preincubated for 15 mins by stopped-flow CO2 hydrase assay.
The target of assay [4] is Carbonic anhydrase 1 (Homo sapiens, UniProt P00915). In words: Inhibition of human carbonic anhydrase 1 preincubated for 15 mins by stopped-flow CO2 hydrase assay.
Chain of Carbonic anhydrase 1 (P00915 whole entry): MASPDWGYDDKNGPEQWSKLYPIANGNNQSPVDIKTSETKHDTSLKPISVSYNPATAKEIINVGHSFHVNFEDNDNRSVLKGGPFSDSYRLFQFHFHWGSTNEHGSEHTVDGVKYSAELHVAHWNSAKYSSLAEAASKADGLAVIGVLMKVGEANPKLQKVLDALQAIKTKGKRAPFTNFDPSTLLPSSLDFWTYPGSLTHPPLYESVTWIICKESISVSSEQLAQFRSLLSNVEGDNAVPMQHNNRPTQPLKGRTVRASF

The record followed here is ChEMBL document CHEMBL3813622, “Anion inhibition profiles of α-, β- and γ-carbonic anhydrases from the pathogenic bacterium Vibrio cholerae” (Bioorg Med Chem, 2016).

Values joined by “and” are separate entries in the source; they are usually repeats but may differ in a detail not shown here. Identical values can stand only once. Where only a bound is given, the exact number is not on record here.

By Ki is commonly meant a dissociation constant, usually derived from enzyme kinetics or from competition with a known ligand. In the case of `O=S(=O)(O)F`, in assay [1], the Ki is 8900 µM.

Consider `O=S(=O)(O)NS(=O)(=O)O`, for which the Ki in assay [2] is 540 µM; in assay [3], 88200 µM; in assay [1], more than 200000 µM.

As for `O=S(=O)(O)OOS(=O)(=O)O`, the inhibitory constant (Ki) in assay [2] was 920 µM; in assay [3], 84100 µM; in assay [1], 3400 µM.

Regarding `F[B-](F)(F)F`, the Ki in assay [2], in assay [3] and in assay [1] was more than 200000 µM each time.

As for `O=[N+]([O-])O`, the Ki in assay [2] was determined as 810 µM; in assay [3] it was 670 µM; in assay [1], 8400 µM.

As for `O=[Te](=O)(O)O`, the Ki in assay [2] amounted to 340 µM; in assay [3] it was 14500 µM; in assay [1] it was 2300 µM.

In the case of `N#C[SeH]`, the inhibition constant (Ki) was determined as 8.5 µM in assay [4], 730 µM in assay [2], 760 µM in assay [3] and 5300 µM in assay [1].

As to `[N-]=[N+]=[N-]`, the inhibitory constant (Ki) in assay [2] stood at 830 µM; in assay [3] it was 760 µM; in assay [1], 20500 µM.

With `O=C(O)O` [BICARBONATE], the Ki in assay [3] is 4640 µM and 5130 µM; in assay [1] it was 5900 µM and 6700 µM.

With `Br` [BROMIDE], the Ki amounted to 2410 µM in assay [2], 28000 µM in assay [3] and 7400 µM in assay [1].

On to `S=C(S)S` [CARBONOTRITHIOIC ACID], for which the values for the Ki in assay [2], in assay [3] and in assay [1] were 380 µM, 88 µM and 7000 µM, respectively.

With `N#CO` [CYANATE], the values for the Ki in assay [2], in assay [3] and in assay [1] were 600 µM, 75 µM and 7100 µM, respectively.

`CCN(CC)C(=S)S` [DITIOCARB]: the Ki in assay [2] turned out to be 5 µM; in assay [3] it was 43 µM; in assay [1], 730 µM.

On to `F` [FLUORIDE ION], for which the values for the inhibitory constant (Ki) in assay [2], in assay [3] and in assay [1] were 4080 µM, 800 µM and 8700 µM, respectively.

With `Cl` [HYDROCHLORIC ACID], the Ki is 2700 µM in assay [2], 930 µM in assay [3] and 8100 µM in assay [1].

In the case of `S` [HYDROGEN SULFIDE], the inhibitory constant (Ki) in assay [3] turned out to be 74 µM; in assay [1] it was 21300 µM.

Take `I` [IODIDE]: the Ki turned out to be 6050 µM in assay [2], 9730 µM in assay [3] and 9000 µM in assay [1].

With `O=NO` [NITROUS ACID], the figures for the Ki in assay [2], in assay [3] and in assay [1] were 930 µM, 34100 µM and 9100 µM, respectively.

Regarding `[O-][Cl+3]([O-])([O-])O` [PERCHLORATE], the Ki in assay [2] was 10100 µM; in assay [3] it was more than 200000 µM; in assay [1], more than 200000 µM.

Turning to `O=[As](O)(O)c1ccccc1` [PHENYLARSONIC ACID], the Ki turned out to be 440 µM in assay [2], 23 µM in assay [3] and 79 µM in assay [1].

As to `OB(O)c1ccccc1` [PHENYLBORONIC ACID], the inhibitory constant (Ki) in assay [2] turned out to be 97 µM; in assay [3], 7 µM; in assay [1], 85 µM.

On to `O=P(O)(O)OP(=O)(O)O` [PYROPHOSPHORIC ACID], for which the results for the Ki in assay [2] and in assay [3] were 660 µM and 2960 µM, respectively.

In the case of `O=[Se](=O)(O)O` [SELENIC ACID], the Ki is 720 µM in assay [2], 60800 µM in assay [3] and 3400 µM in assay [1].

On to `NS(=O)(=O)O` [SULFAMATE], for which the Ki in assay [2] was determined as 80 µM; in assay [3] it was 31 µM; in assay [1], 86 µM.

Turning to `NS(N)(=O)=O` [SULFAMIDE], the Ki in assay [2] came out at 73 µM; in assay [3], 8 µM; in assay [1], 54 µM.

On to `O=S(=O)(O)O` [SULFURIC ACID], for which the inhibitory constant (Ki) in assay [2] was determined as 820 µM; in assay [3], 850 µM.

As for `O=S(O)O` [SULFUROUS ACID], the values for the Ki in assay [2], in assay [3] and in assay [1] were 990 µM, 68 µM and more than 200000 µM, respectively.

With `N#CS` [THIOCYANIC ACID], the Ki in assay [2] stood at 4100 µM; in assay [3] it was 820 µM; in assay [1], 9500 µM.
